# Source: ChEMBL document CHEMBL4665812, “Targeting Her2-insYVMA with Covalent Inhibitors-A Focused Compound Screening and Structure-Based Design Approach” (J Med Chem, 2020)
# pIC50, pKi: −log10 of the molar value.
# Key:
# [1] = Inhibition of HER2-A775_G776insYVMA mutant (unknown origin) expressed in mouse BaF3 cells assessed as reduction in HER2 induced cell viability after 96 hrs by CellTiter-Glo assay; type: cell-based; settings: BaF3, 96 h
# [2] = cells; type: cell-based; settings: Homo sapiens, NCI-H1781, 96 h
# Description: Inhibition of HER2-G776delinsVC mutant (unknown origin) expressed in human H1781 cells assessed as reduction in HER2 induced cell viability after 96 hrs by CellTiter-Glo assay
# [3] = molecular target: Receptor tyrosine-protein kinase erbB-2 (Homo sapiens, UniProt P04626); test: Inhibition of C-terminal His6-tagged HER2 (703 to 1029 residues) (unknown origin) expressed in Sf9 insect cells using TK as substrate preincubated for 30 mins followed by substrate addition and measured after 60 mins in presence of XL665-labeled streptavidin by HTRF assay
# [4] = Apparent permeability across basolateral side to apical side in human Caco-2 cells at 5 uM after 2 hrs by transwell assay; type: ADME, cell-based; settings: read-out: permeability
# [5] = Apparent permeability across apical side to basolateral side in human Caco-2 cells at 5 uM after 2 hrs by transwell assay; type: ADME, cell-based; settings: read-out: permeability
# [6] = Intrinsic clearance in human liver microsomes at 3 uM measured up to 50 mins by LC-MS analysis; type: ADME, Microsome; settings: read-out: CLH
# [7] = Stability of compound in human plasma assessed as parent compound remaining at 5 uM measured for 1 hr by LC-MS analysis; type: ADME, cell-free; settings: read-out: Stabilty
# [8] = Kinetic solubility of compound in HEPES buffer a pH 7.4 at 500 uM after 90 mins; type: physicochemical; settings: read-out: Kinetic_solubility
# [9] = Solubility of compound in aqueous buffer at pH 7.4 after 120 mins by turbidometric assay; type: physicochemical
# [10] = Stability of compound in mouse plasma assessed as parent compound remaining at 5 uM measured for 1 hr by LC-MS analysis; type: ADME, cell-free; settings: for remaining at 1 h, 5 µM: read-out: Stabilty
# [11] = Intrinsic clearance in mouse liver microsomes at 3 uM measured up to 60 mins by LC-MS analysis; type: ADME, Microsome; settings: read-out: CLH
# [12] = Ratio of apparent permeability across basolateral to apical over apical to basolateral side in human Caco2 cells at 5 uM after 2 hrs by transwell assay; type: ADME, cell-based; settings: Caco-2
# [13] = Inhibition of C-terminal His6-tagged HER2-A775_G776insYVMA mutant (703 to 1029 residues) (unknown origin) expressed in Sf9 insect cells using TK as substrate measured up to 2 to 40 mins by fluorescence assay; design: species or system Homo sapiens
# Sequence of Receptor tyrosine-protein kinase erbB-2 (P04626 whole entry, the tested form may be a part): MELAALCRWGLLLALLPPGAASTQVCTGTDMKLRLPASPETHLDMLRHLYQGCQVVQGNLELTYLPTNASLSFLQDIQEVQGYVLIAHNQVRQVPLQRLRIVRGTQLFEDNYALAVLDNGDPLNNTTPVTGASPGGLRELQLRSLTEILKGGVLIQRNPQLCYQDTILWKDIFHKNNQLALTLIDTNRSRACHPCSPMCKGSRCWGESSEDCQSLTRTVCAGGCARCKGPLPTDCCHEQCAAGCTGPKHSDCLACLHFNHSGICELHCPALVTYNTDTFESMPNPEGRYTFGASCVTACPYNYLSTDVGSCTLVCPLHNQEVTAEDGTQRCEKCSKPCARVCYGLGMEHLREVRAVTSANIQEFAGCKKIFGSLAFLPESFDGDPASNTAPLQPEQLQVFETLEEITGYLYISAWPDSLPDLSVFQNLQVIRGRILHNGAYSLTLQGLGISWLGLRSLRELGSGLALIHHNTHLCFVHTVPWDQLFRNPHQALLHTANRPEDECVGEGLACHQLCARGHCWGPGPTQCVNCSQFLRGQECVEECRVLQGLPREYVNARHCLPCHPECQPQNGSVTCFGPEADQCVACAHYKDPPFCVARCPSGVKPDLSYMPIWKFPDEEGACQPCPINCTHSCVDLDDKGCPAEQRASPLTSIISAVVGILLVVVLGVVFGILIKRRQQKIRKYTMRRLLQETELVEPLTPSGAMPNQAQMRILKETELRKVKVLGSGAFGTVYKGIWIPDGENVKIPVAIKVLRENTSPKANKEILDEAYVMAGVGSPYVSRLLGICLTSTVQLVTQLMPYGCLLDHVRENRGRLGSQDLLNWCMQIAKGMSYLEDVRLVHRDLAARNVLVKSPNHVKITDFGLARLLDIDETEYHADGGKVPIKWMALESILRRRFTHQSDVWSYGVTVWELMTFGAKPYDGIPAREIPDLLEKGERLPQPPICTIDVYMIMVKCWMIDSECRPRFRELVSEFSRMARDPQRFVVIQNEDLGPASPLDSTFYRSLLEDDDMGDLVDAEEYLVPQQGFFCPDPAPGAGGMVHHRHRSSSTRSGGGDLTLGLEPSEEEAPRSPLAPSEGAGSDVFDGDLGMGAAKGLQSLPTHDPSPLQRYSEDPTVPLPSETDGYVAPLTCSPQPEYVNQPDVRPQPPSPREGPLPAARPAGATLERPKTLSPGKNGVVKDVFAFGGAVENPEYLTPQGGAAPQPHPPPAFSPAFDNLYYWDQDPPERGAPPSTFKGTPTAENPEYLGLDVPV
Compound,pIC50 [2],pIC50 [3],pIC50 [1],also measured
C=CC(=O)Nc1cccc(-c2c(-c3ccc(N4CCN(C)CC4)cc3)[nH]c3ncnc(OC)c23)c1,6.45,7.30,6.04,
C=CC(=O)Nc1cccc(-c2c(-c3ccc(N4CCN(C)CC4)cc3)[nH]c3ncn(C(C)C)c(=O)c23)c1,5.69,6.23,5.44,
C=CC(=O)Nc1cc(-c2c[nH]c3ncnc(Nc4ccc(OCc5ccccn5)c(Cl)c4)c23)ccc1OC(C)COC (stereo not drawn),6.26,7.85,6.59,
CS(=O)(=O)CCNCc1ccc(-c2ccc3ncnc(Nc4ccc(OCc5cccc(F)c5)c(Cl)c4)c3c2)o1 [LAPATINIB],5.40,,5.56,"Papp B→A at 2 h, 5 µM [4]: 0.2 ×10⁻⁶ cm/s; Papp A→B at 2 h, 5 µM [5]: 0.7 ×10⁻⁶ cm/s; microsomal CLint at 3 µM [6]: 16.7 µL/min/mg; remaining at 1 h, 5 µM [7]: 99.7%; solubility kinetic at 1.5 h, 500 µM [8]: 4.1 µM; solubility kinetic at 2 h [9]: 3 µM; remaining at 1 h, 5 µM [10]: 95.9%; microsomal CLint at 3 µM [11]: 73.7 µL/min/mg"
CN(C)C/C=C/C(=O)Nc1cc2c(Nc3ccc(F)c(Cl)c3)ncnc2cc1O[C@H]1CCOC1 [AFATINIB],,,,"Papp B→A at 2 h, 5 µM [4]: 55.4 ×10⁻⁶ cm/s; Papp A→B at 2 h, 5 µM [5]: 2.38 ×10⁻⁶ cm/s; microsomal CLint at 3 µM [6]: 1.4 µL/min/mg; remaining at 1 h, 5 µM [7]: 96.5%; remaining at 1 h, 5 µM [10]: 101%; microsomal CLint at 3 µM [11]: 9.4 µL/min/mg"
C=CC(=O)Nc1cccc(-c2c(-c3ccc(N4CCN(C)CC4)cc3)[nH]c3ncn(CC)c(=O)c23)c1,5.63,7.08,5.55,
C=CC(=O)Nc1cc(-c2c[nH]c3ncnc(Nc4ccc5[nH]c(Cc6ccccc6)nc5c4)c23)ccc1OCCO,< 5.52,6.73,< 5.52,
C=CC(=O)Nc1cccc(-c2c[nH]c3ncnc(Nc4ccc(Oc5ccccc5)cc4)c23)c1,< 5.52,7.89,< 5.52,
C=CC(=O)Nc1cc(-c2c[nH]c3ncnc(Nc4ccc(CN5C(=O)c6ccccc6C5=O)cc4)c23)ccc1OCCO,5.79,7.82,6.17,
C=CC(=O)Nc1cc(Nc2nccc(-c3cn(C)c4ccccc34)n2)c(OC)cc1N(C)CCN(C)C [OSIMERTINIB],6.09,,5.86,
C=CC(=O)Nc1cccc(-c2c[nH]c3ncnc(Nc4ccc(Cc5ccccc5)cc4)c23)c1,< 5.52,7.54,6.12,
C=CC(=O)Nc1cccc(-c2c(-c3ccc(N4CCN(C)CC4)cc3)[nH]c3ncnc(Nc4ccc(OC(c5ccccc5)c5ccccc5)cc4)c23)c1,5.58,8.35,< 5.52,
C=CC(=O)Nc1cccc(-c2c(-c3ccc(N4CCN(C)CC4)cc3)[nH]c3ncnc(Nc4ccc(OCc5cccc(F)c5)c(Cl)c4)c23)c1,< 4.52,7.02,5.65,
C=CC(=O)Nc1cccc(-c2c(-c3ccc(N4CCN(C)CC4)cc3)[nH]c3ncnc(OCC)c23)c1,6.38,7.85,6.49,
C=CC(=O)Nc1cc(-c2c[nH]c3ncnc(Nc4ccc(CN5C(=O)c6ccccc6C5=O)cc4)c23)ccc1OCCN(C)C,5.92,7.64,6.21,
COc1cc2ncnc(Nc3ccc(F)c(Cl)c3)c2cc1OCCCN1CCOCC1 [GEFITINIB],,,5.54,
C=CC(=O)Nc1cccc(-c2c(-c3ccc(N4CCN(C)CC4)cc3)[nH]c3ncn(C)c(=O)c23)c1,5.91,6.84,5.48,
C=CC(=O)Nc1cccc(-c2c(-c3ccc(N4CCN(C)CC4)cc3)[nH]c3ncnc(OCC(C)C)c23)c1,5.64,7.59,5.95,
CC(C)(O)CC(=O)NCCn1ccc2ncnc(Nc3ccc(Oc4cccc(C(F)(F)F)c4)c(Cl)c3)c21 [TAK-285],5.40,,5.49,
C=CC(=O)Nc1cccc(-c2c(-c3ccc(N4CCN(C)CC4)cc3)[nH]c3ncnc(Nc4ccc(CN5C(=O)c6ccccc6C5=O)cc4)c23)c1,6.31,7.26,6.20,
C=CC(=O)Nc1cccc(-c2c(-c3ccc(N4CCN(C)CC4)cc3)[nH]c3ncnc(OC(C)C)c23)c1,5.93,7.68,5.84,
C=CC(=O)Nc1cccc(-c2c(-c3ccc(N4CCN(C)CC4)cc3)[nH]c3ncnc(Nc4ccc(NC(=O)C(c5ccccc5)N5Cc6ccccc6C5=O)cc4)c23)c1 (stereo not drawn),6.16,7.37,5.57,
C=CC(=O)Nc1cccc(-c2c[nH]c3ncnc(Nc4ccc(OCN5C(=O)c6ccccc6C5=O)cc4)c23)c1,6.42,8.35,6.25,
C=CC(=O)Nc1cccc(-c2c(-c3ccc(N4CCN(C)CC4)cc3)[nH]c3ncn(CC(C)C)c(=O)c23)c1,6.01,6.49,5.62,
C=CC(=O)Nc1cccc(-c2c[nH]c3ncnc(Nc4ccc(OC(c5ccccc5)c5ccccc5)cc4)c23)c1,5.19,7.59,6.30,

# The next lines start with results.
pIC50 [2],pIC50 [3],Compound,pIC50 [1],also measured
6.58,7.92,C=CC(=O)Nc1cccc(-c2c(-c3ccc(N4CCN(C)CC4)cc3)[nH]c3ncnc(Nc4ccc(OCN5C(=O)c6ccccc6C5=O)cc4)c23)c1,6.39,
6.70,8.72,C=CC(=O)Nc1cc(-c2c[nH]c3ncnc(Nc4ccc(OCc5ccccn5)c(Cl)c4)c23)ccc1OCCO,7.08,
6.60,7.85,C=CC(=O)Nc1cccc(-c2c(-c3ccc(N4CCN(C)CC4)cc3)[nH]c3ncnc(Nc4ccc(OCc5ccccn5)c(Cl)c4)c23)c1,6.55,
6.48,8.10,C=CC(=O)Nc1cccc(-c2c[nH]c3ncnc(Nc4ccc5c(ccn5Cc5ccccc5)c4)c23)c1,6.52,
6.57,8.03,C=CC(=O)Nc1cc(-c2c[nH]c3ncnc(Nc4ccc(OCc5ccccn5)c(Cl)c4)c23)ccc1OCCCO,7.39,
6.48,7.89,C=CC(=O)Nc1cccc(-c2c(-c3ccc(N4CCN(C)CC4)cc3)[nH]c3ncnc(Nc4ccc(OC(=O)C(c5ccccc5)N5Cc6ccccc6C5=O)cc4)c23)c1 (stereo not drawn),6.41,
6.52,7.85,C=CC(=O)Nc1cccc(-c2c[nH]c3ncnc(Nc4ccc(OCc5cccc(F)c5)c(Cl)c4)c23)c1,6.87,
6.78,8.41,C=CC(=O)Nc1cccc(-c2c(-c3ccc(N4CCN(C)CC4)cc3)[nH]c3ncnc(Nc4ccc(O)cc4)c23)c1,6.37,
6.90,7.92,C=CC(=O)Nc1cccc(-c2c[nH]c3ncnc(Nc4ccc5c(cnn5Cc5ccccc5)c4)c23)c1,7.28,
6.71,8.46,C=CC(=O)Nc1cccc(-c2c[nH]c3ncnc(Nc4ccc5[nH]c(Cc6ccccc6)nc5c4)c23)c1,6.46,
6.98,7.92,C=CC(=O)N1CCC(Oc2cc3c(Nc4ccc(Cl)c(Cl)c4F)ncnc3cc2OC)CC1 [POZIOTINIB],> 7.85,"Papp B→A at 2 h, 5 µM [4]: 7.5 ×10⁻⁶ cm/s; Papp A→B at 2 h, 5 µM [5]: 21.1 ×10⁻⁶ cm/s; microsomal CLint at 3 µM [6]: 22 µL/min/mg; efflux ratio at 2 h, 5 µM [12]: 0.36; remaining at 1 h, 5 µM [7]: 86.9%; solubility kinetic at 1.5 h, 500 µM [8]: 39.3 µM; Stabilty ([10]; 1 h, 5 µM): 120.4%; microsomal CLint at 3 µM [11]: 35.4 µL/min/mg"
6.83,,CCOc1cc2ncc(C#N)c(Nc3ccc(OCc4ccccn4)c(Cl)c3)c2cc1NC(=O)/C=C/CN(C)C [NERATINIB],> 7.85,"Papp B→A at 2 h, 5 µM [4]: 0.4 ×10⁻⁶ cm/s; Papp A→B at 2 h, 5 µM [5]: 0.09 ×10⁻⁶ cm/s; microsomal CLint at 3 µM [6]: 42 µL/min/mg; pKi [13]: 8.20; remaining at 1 h, 5 µM [7]: 80.7%; solubility kinetic at 1.5 h, 500 µM [8]: 1.2 µM; solubility kinetic at 2 h [9]: > 10 µM; remaining at 1 h, 5 µM [10]: 97.4%; microsomal CLint at 3 µM [11]: 126 µL/min/mg"
